Values quoted from earlier work in paper PMC9054096 (RSC Advances, 2020).

Key:
[1] = biological target: Human galectin-9C (Homo sapiens, UniProt O00182); conditions: read-out: Galectin-9C affinity (Kd); reference compound
[2] = biological target: T1, Human galectin-4N (Homo sapiens, UniProt P56470); conditions: read-out: Galectin-4N affinity (Kd); reference compound
T1 sequence (P56470 19-150 limits assumed): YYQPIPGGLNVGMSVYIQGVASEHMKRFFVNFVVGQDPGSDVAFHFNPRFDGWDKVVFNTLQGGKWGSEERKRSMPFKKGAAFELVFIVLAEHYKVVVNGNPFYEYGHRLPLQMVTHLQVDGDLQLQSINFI

[3] = biological target: Human galectin-9N (Homo sapiens, UniProt O00182); conditions: read-out: Galectin-9N affinity (Kd); reference compound
Chain of Human galectin-9N (O00182 17-148 limits assumed): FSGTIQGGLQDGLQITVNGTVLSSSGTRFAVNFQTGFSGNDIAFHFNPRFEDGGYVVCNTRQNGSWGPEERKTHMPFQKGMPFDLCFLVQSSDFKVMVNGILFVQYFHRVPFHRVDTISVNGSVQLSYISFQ

[4] = biological target: Human galectin-3 (Homo sapiens, UniProt P17931); conditions: read-out: Galectin-3 affinity (Kd); reference compound
Chain of Human galectin-3 (P17931 whole entry): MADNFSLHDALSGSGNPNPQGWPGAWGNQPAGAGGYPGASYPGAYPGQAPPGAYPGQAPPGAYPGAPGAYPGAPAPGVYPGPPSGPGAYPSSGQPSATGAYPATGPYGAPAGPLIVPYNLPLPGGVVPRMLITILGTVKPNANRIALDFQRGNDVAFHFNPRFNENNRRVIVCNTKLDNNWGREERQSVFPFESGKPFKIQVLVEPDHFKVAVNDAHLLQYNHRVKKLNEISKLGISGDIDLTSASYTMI

[5] = biological target: Human galectin-1 (Homo sapiens, UniProt P09382); conditions: read-out: Galectin-1 affinity (Kd); reference compound
Chain of Human galectin-1 (P09382 whole entry): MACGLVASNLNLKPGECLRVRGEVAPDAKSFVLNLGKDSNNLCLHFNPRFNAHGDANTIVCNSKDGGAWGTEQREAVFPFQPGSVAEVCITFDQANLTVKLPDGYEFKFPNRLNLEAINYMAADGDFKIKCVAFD

[6] = biological target: T2, Human galectin-4C (Homo sapiens, UniProt P56470); conditions: read-out: Galectin-4C affinity (Kd); reference compound
T2 sequence (P56470 194-323 limits assumed): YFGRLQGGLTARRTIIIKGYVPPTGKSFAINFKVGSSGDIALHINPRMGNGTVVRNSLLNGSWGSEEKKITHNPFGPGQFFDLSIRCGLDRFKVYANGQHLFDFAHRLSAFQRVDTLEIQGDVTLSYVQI

Chain of Human galectin-9C (O00182 227-355 limits assumed): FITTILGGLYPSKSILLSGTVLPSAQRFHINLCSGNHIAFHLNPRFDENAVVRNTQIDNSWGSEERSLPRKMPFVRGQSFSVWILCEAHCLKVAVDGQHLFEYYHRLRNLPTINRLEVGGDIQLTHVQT

## O=C(O)c1ccc2ccc(CO[C@@H]3[C@@H](O)[C@@H](Sc4ccc(Cl)c(Cl)c4)O[C@H](CO)[C@@H]3O)nc2c1 [Compound 2, 3,4-dichlorophenyl 3-O-(7-carboxy-quinolin-2-yl-methyl)-1-thio-α-D-galactopyranoside]
[1]
  Kd: 14 ± 1.3 µM
[2]
  Kd: 43 ± 7.1 µM
[3]
  Kd: 2.06 ± 0.09 µM
[4]
  Kd: 1.27 ± 0.07 µM
[5]
  Kd: 48 ± 4.4 µM
[6]
  Kd: 43 ± 5.7 µM
